Measured values as given in ChEMBL document CHEMBL2407073, “RCAI-61 and related 6'-modified analogs of KRN7000: their synthesis and bioactivity for mouse lymphocytes to produce interferon-γ in vivo” (Bioorg Med Chem, 2013).
The source made the active and inactive calls.

Key:
Assay type in all cases: functional, organism-based
Mus musculus [1] = assay: Immunostimulatory activity in C57BL/6J mouse assessed as increase in production of IL-4 in serum at 2 ug, iv measured at 3 hrs by cytometric bead array method
Mus musculus [2] = assay: Immunostimulatory activity in C57BL/6J mouse assessed as increase in production of IFNgamma in serum at 2 ug, iv by ELISA
Mus musculus [3] = assay: Immunostimulatory activity in C57BL/6J mouse assessed as increase in production of IL-12p70 in serum at 2 ug, iv measured at 3 to 6 hrs by cytometric bead array method
Mus musculus [4] = assay: Immunostimulatory activity in iv dosed C57BL/6J mouse assessed as increase in production of IL-4 in serum measured at 3 hrs by cytometric bead array method
Mus musculus [5] = assay: Immunostimulatory activity in C57BL/6J mouse assessed as increase in production of IFNgamma in serum at 0.02 ug, iv by ELISA
Mus musculus [6] = assay: Immunostimulatory activity in C57BL/6J mouse assessed as increase in production of IL-4 in serum at 0.02 to 2 ug, iv measured at 3 hrs by cytometric bead array method

Measured: Activity

CCCCCCCCCCCCCCCCCCCCCCCCCC(=O)N[C@@H](CO[C@H]1O[C@H](COCOC)[C@H](O)[C@H](O)[C@H]1O)[C@H](O)[C@H](O)CCCCCCCCCCCCCC
active: Mus musculus [1] | Mus musculus [2] | Mus musculus [3]

CCCCCCCCCCCCCCCCCCCCCCCCCC(=O)N[C@@H](CO[C@H]1O[C@H](COCOCCOC)[C@H](O)[C@H](O)[C@H]1O)[C@H](O)[C@H](O)CCCCCCCCCCCCCC
active: Mus musculus [1] | Mus musculus [2] | Mus musculus [3]

CCCCCCCCCCCCCCCCCCCCCCCCCC(=O)N[C@@H](CO[C@H]1OC[C@H](O)[C@H](O)[C@H]1O)[C@H](O)[C@H](O)CCCCCCCCCCCCCC
active: Mus musculus [1] | Mus musculus [2] | Mus musculus [3]

CCCCCCCCCCCCCCCCCCCCCCCCCC(=O)N[C@@H](CO[C@H]1O[C@H](COC)[C@H](O)[C@H](O)[C@H]1O)[C@H](O)[C@H](O)CCCCCCCCCCCCCC
active: Mus musculus [4] Dose-dependent effect | Mus musculus [1] | Mus musculus [2] | Mus musculus [5] | Mus musculus [3]

CCCCCCCCCCCCCCCCCCCCCCCCCC(=O)N[C@@H](CO[C@H]1O[C@H](C)[C@H](O)[C@H](O)[C@H]1O)[C@H](O)[C@H](O)CCCCCCCCCCCCCC
active: Mus musculus [1] | Mus musculus [2] | Mus musculus [3]

CCCCCCCCCCCCCCCCCCCCCCCCCC(=O)N[C@@H](CO[C@H]1O[C@H](CO)[C@H](O)[C@H](O)[C@H]1O)[C@H](O)[C@H](O)CCCCCCCCCCCCCC
active: Mus musculus [6] | Mus musculus [1] | Mus musculus [2] | Mus musculus [3]

CCCCCCCCCCCCCCCCCCCCCCCCCC(=O)N[C@@H](CO[C@H]1O[C@H](CC)[C@H](O)[C@H](O)[C@H]1O)[C@H](O)[C@H](O)CCCCCCCCCCCCCC
active: Mus musculus [1] | Mus musculus [2] | Mus musculus [3]

CCCCCCCCCCCCCCCCCCCCCCCCCC(=O)N[C@@H](CO[C@H]1O[C@H](COCCO)[C@H](O)[C@H](O)[C@H]1O)[C@H](O)[C@H](O)CCCCCCCCCCCCCC
active: Mus musculus [1] | Mus musculus [2] | Mus musculus [3]

CCCCCCCCCCCCCCCCCCCCCCCCCC(=O)N[C@@H](CO[C@H]1O[C@H](COCCC)[C@H](O)[C@H](O)[C@H]1O)[C@H](O)[C@H](O)CCCCCCCCCCCCCC
active: Mus musculus [1] | Mus musculus [2] | Mus musculus [3]

CCCCCCCCCCCCCCCCCCCCCCCCCC(=O)N[C@@H](CO[C@H]1O[C@H](COCC)[C@H](O)[C@H](O)[C@H]1O)[C@H](O)[C@H](O)CCCCCCCCCCCCCC
active: Mus musculus [1] | Mus musculus [2] | Mus musculus [3]

CCCCCCCCCCCCCCCCCCCCCCCCCC(=O)N[C@@H](CO[C@H]1O[C@H](CF)[C@H](O)[C@H](O)[C@H]1O)[C@H](O)[C@H](O)CCCCCCCCCCCCCC
active: Mus musculus [1] | Mus musculus [2] | Mus musculus [3]
